Reference: the NIST ThermoML archive (doi:10.1016/j.jct.2009.04.001)
± gives the expanded uncertainty stated by the source.

How the values were obtained:
[1] = xn = mol fraction of the nth substance listed; settings: for surface tension liquid-gas: Pendant drop shape; for mass density: 101 kPa, Liquid, Vibrating tube method
[2] = for surface tension liquid-gas: Pendant drop shape; for mass density: Liquid, Vibrating tube method

## COCCOC [1,2-dimethoxyethane] + Cc1ccccc1C
[1]; 298.15 K, x1 = 0.0995
  surface tension liquid-gas: 29.05 ± 0.31 mN/m
  mass density: 874.01 ± 0.14 kg/m3
[1]; 298.15 K, x1 = 0.1998
  surface tension liquid-gas: 28.28 ± 0.3 mN/m
  mass density: 872.89 ± 0.14 kg/m3
[1]; 298.15 K, x1 = 0.3003
  surface tension liquid-gas: 27.6 ± 0.3 mN/m
  mass density: 871.73 ± 0.15 kg/m3
[1]; 298.15 K, x1 = 0.4004
  surface tension liquid-gas: 27.08 ± 0.3 mN/m
  mass density: 870.51 ± 0.15 kg/m3
[1]; 298.15 K, x1 = 0.4998
  surface tension liquid-gas: 26.63 ± 0.29 mN/m
  mass density: 869.24 ± 0.15 kg/m3
[1]; 298.15 K, x1 = 0.6001
  surface tension liquid-gas: 26.2 ± 0.3 mN/m
  mass density: 867.86 ± 0.16 kg/m3
[1]; 298.15 K, x1 = 0.7008
  surface tension liquid-gas: 25.78 ± 0.29 mN/m
  mass density: 866.37 ± 0.16 kg/m3
[1]; 298.15 K, x1 = 0.7996
  surface tension liquid-gas: 25.37 ± 0.29 mN/m
  mass density: 864.86 ± 0.17 kg/m3
[1]; 298.15 K, x1 = 0.8992
  surface tension liquid-gas: 24.96 ± 0.28 mN/m
  mass density: 863.22 ± 0.17 kg/m3
[1]; 298.15 K, x1 = 0.95
  surface tension liquid-gas: 24.64 ± 0.28 mN/m
  mass density: 862.34 ± 0.17 kg/m3
[1]; 298.15 K, x1 = 1
  surface tension liquid-gas: 24.27 ± 0.28 mN/m
  mass density: 861.36 ± 0.18 kg/m3
[1]; 303.15 K, x1 = 0.0996
  surface tension liquid-gas: 28.45 ± 0.3 mN/m
  mass density: 869.77 ± 0.14 kg/m3
[1]; 303.15 K, x1 = 0.1997
  surface tension liquid-gas: 27.73 ± 0.3 mN/m
  mass density: 868.64 ± 0.15 kg/m3
[1]; 303.15 K, x1 = 0.3007
  surface tension liquid-gas: 27.08 ± 0.3 mN/m
  mass density: 867.45 ± 0.15 kg/m3
[1]; 303.15 K, x1 = 0.3997
  surface tension liquid-gas: 26.61 ± 0.29 mN/m
  mass density: 866.2 ± 0.15 kg/m3
[1]; 303.15 K, x1 = 0.5001
  surface tension liquid-gas: 26.19 ± 0.29 mN/m
  mass density: 864.88 ± 0.16 kg/m3
[1]; 303.15 K, x1 = 0.6012
  surface tension liquid-gas: 25.78 ± 0.29 mN/m
  mass density: 863.46 ± 0.16 kg/m3
[1]; 303.15 K, x1 = 0.7009
  surface tension liquid-gas: 25.37 ± 0.29 mN/m
  mass density: 861.98 ± 0.16 kg/m3
[1]; 303.15 K, x1 = 0.7988
  surface tension liquid-gas: 25 ± 0.28 mN/m
  mass density: 860.43 ± 0.17 kg/m3
[1]; 303.15 K, x1 = 0.8998
  surface tension liquid-gas: 24.53 ± 0.28 mN/m
  mass density: 858.74 ± 0.17 kg/m3
[1]; 303.15 K, x1 = 0.9498
  surface tension liquid-gas: 24.17 ± 0.28 mN/m
  mass density: 857.85 ± 0.17 kg/m3
[1]; 303.15 K, x1 = 1
  surface tension liquid-gas: 23.73 ± 0.28 mN/m
  mass density: 856.8 ± 0.18 kg/m3
[1]; 308.15 K, x1 = 0.0998
  surface tension liquid-gas: 27.92 ± 0.3 mN/m
  mass density: 865.45 ± 0.14 kg/m3
[1]; 308.15 K, x1 = 0.2005
  surface tension liquid-gas: 27.23 ± 0.3 mN/m
  mass density: 864.2 ± 0.15 kg/m3
[1]; 308.15 K, x1 = 0.3003
  surface tension liquid-gas: 26.61 ± 0.29 mN/m
  mass density: 862.9 ± 0.15 kg/m3
[1]; 308.15 K, x1 = 0.4009
  surface tension liquid-gas: 26.17 ± 0.29 mN/m
  mass density: 861.51 ± 0.15 kg/m3
[1]; 308.15 K, x1 = 0.4991
  surface tension liquid-gas: 25.77 ± 0.29 mN/m
  mass density: 860.07 ± 0.16 kg/m3
[1]; 308.15 K, x1 = 0.5995
  surface tension liquid-gas: 25.39 ± 0.28 mN/m
  mass density: 858.53 ± 0.16 kg/m3
[1]; 308.15 K, x1 = 0.7013
  surface tension liquid-gas: 24.99 ± 0.28 mN/m
  mass density: 856.88 ± 0.16 kg/m3
[1]; 308.15 K, x1 = 0.7991
  surface tension liquid-gas: 24.58 ± 0.28 mN/m
  mass density: 855.2 ± 0.17 kg/m3
[1]; 308.15 K, x1 = 0.9008
  surface tension liquid-gas: 24.07 ± 0.28 mN/m
  mass density: 853.35 ± 0.17 kg/m3
[1]; 308.15 K, x1 = 0.9503
  surface tension liquid-gas: 23.66 ± 0.27 mN/m
  mass density: 852.39 ± 0.18 kg/m3
[1]; 308.15 K, x1 = 1
  surface tension liquid-gas: 23.16 ± 0.27 mN/m
  mass density: 851.24 ± 0.18 kg/m3

## Cc1ccccc1C [1,2-dimethylbenzene]
[2]; 298.15 K
  surface tension liquid-gas: 29.86 ± 0.32 mN/m
[2]; 298.15 K, 101.33 kPa
  mass density: 875.09 ± 0.14 kg/m3
[2]; 303.15 K
  surface tension liquid-gas: 29.18 ± 0.31 mN/m
[2]; 303.15 K, 101.33 kPa
  mass density: 870.86 ± 0.14 kg/m3
[2]; 308.15 K
  surface tension liquid-gas: 28.61 ± 0.31 mN/m
[2]; 308.15 K, 101.33 kPa
  mass density: 866.64 ± 0.14 kg/m3

## Cc1ccccc1C [1,2-dimethylbenzene] + COCCOC
[1]; 298.15 K, x2 = 0
  surface tension liquid-gas: 29.86 ± 0.32 mN/m
  mass density: 875.09 ± 0.14 kg/m3
[1]; 303.15 K, x2 = 0
  surface tension liquid-gas: 29.18 ± 0.31 mN/m
  mass density: 870.86 ± 0.14 kg/m3
[1]; 308.15 K, x2 = 0
  surface tension liquid-gas: 28.61 ± 0.31 mN/m
  mass density: 866.64 ± 0.14 kg/m3

## Cc1ccc(C)cc1 [1,4-dimethylbenzene] + COCCOC
[1]; 298.15 K, x2 = 0
  surface tension liquid-gas: 28.11 ± 0.3 mN/m
  mass density: 856.95 ± 0.15 kg/m3
[1]; 303.15 K, x2 = 0
  surface tension liquid-gas: 27.59 ± 0.3 mN/m
  mass density: 852.61 ± 0.15 kg/m3
[1]; 308.15 K, x2 = 0
  surface tension liquid-gas: 27.07 ± 0.3 mN/m
  mass density: 848.27 ± 0.15 kg/m3

## Cc1ccc(C)cc1 [1,4-dimethylbenzene]
[2]; 298.15 K
  surface tension liquid-gas: 28.11 ± 0.3 mN/m
[2]; 298.15 K, 101.33 kPa
  mass density: 856.95 ± 0.15 kg/m3
[2]; 303.15 K
  surface tension liquid-gas: 27.59 ± 0.3 mN/m
[2]; 303.15 K, 101.33 kPa
  mass density: 852.61 ± 0.15 kg/m3
[2]; 308.15 K
  surface tension liquid-gas: 27.07 ± 0.3 mN/m
[2]; 308.15 K, 101.33 kPa
  mass density: 848.27 ± 0.15 kg/m3

## COCCOC [1,2-dimethoxyethane] + Cc1ccc(C)cc1
[1]; 298.15 K, x1 = 0.1002
  surface tension liquid-gas: 27.63 ± 0.3 mN/m
  mass density: 857.45 ± 0.15 kg/m3
[1]; 298.15 K, x1 = 0.2004
  surface tension liquid-gas: 27.17 ± 0.3 mN/m
  mass density: 857.95 ± 0.16 kg/m3
[1]; 298.15 K, x1 = 0.2996
  surface tension liquid-gas: 26.75 ± 0.3 mN/m
  mass density: 858.44 ± 0.16 kg/m3
[1]; 298.15 K, x1 = 0.4001
  surface tension liquid-gas: 26.32 ± 0.29 mN/m
  mass density: 858.93 ± 0.16 kg/m3
[1]; 298.15 K, x1 = 0.5009
  surface tension liquid-gas: 25.91 ± 0.29 mN/m
  mass density: 859.41 ± 0.16 kg/m3
[1]; 298.15 K, x1 = 0.5997
  surface tension liquid-gas: 25.54 ± 0.29 mN/m
  mass density: 859.85 ± 0.16 kg/m3
[1]; 298.15 K, x1 = 0.7018
  surface tension liquid-gas: 25.18 ± 0.28 mN/m
  mass density: 860.28 ± 0.17 kg/m3
[1]; 298.15 K, x1 = 0.8005
  surface tension liquid-gas: 24.87 ± 0.28 mN/m
  mass density: 860.66 ± 0.17 kg/m3
[1]; 298.15 K, x1 = 0.8998
  surface tension liquid-gas: 24.57 ± 0.28 mN/m
  mass density: 861.02 ± 0.17 kg/m3
[1]; 298.15 K, x1 = 1
  surface tension liquid-gas: 24.27 ± 0.28 mN/m
  mass density: 861.36 ± 0.18 kg/m3
[1]; 303.15 K, x1 = 0.0999
  surface tension liquid-gas: 27.12 ± 0.3 mN/m
  mass density: 853.1 ± 0.15 kg/m3
[1]; 303.15 K, x1 = 0.2007
  surface tension liquid-gas: 26.67 ± 0.29 mN/m
  mass density: 853.58 ± 0.16 kg/m3
[1]; 303.15 K, x1 = 0.3002
  surface tension liquid-gas: 26.24 ± 0.29 mN/m
  mass density: 854.06 ± 0.16 kg/m3
[1]; 303.15 K, x1 = 0.3999
  surface tension liquid-gas: 25.82 ± 0.29 mN/m
  mass density: 854.52 ± 0.16 kg/m3
[1]; 303.15 K, x1 = 0.4999
  surface tension liquid-gas: 25.41 ± 0.29 mN/m
  mass density: 854.97 ± 0.16 kg/m3
[1]; 303.15 K, x1 = 0.6001
  surface tension liquid-gas: 25.03 ± 0.28 mN/m
  mass density: 855.4 ± 0.17 kg/m3
[1]; 303.15 K, x1 = 0.7011
  surface tension liquid-gas: 24.68 ± 0.28 mN/m
  mass density: 855.81 ± 0.17 kg/m3
[1]; 303.15 K, x1 = 0.8003
  surface tension liquid-gas: 24.37 ± 0.28 mN/m
  mass density: 856.19 ± 0.17 kg/m3
[1]; 303.15 K, x1 = 0.9003
  surface tension liquid-gas: 24.05 ± 0.28 mN/m
  mass density: 856.52 ± 0.17 kg/m3
[1]; 303.15 K, x1 = 1
  surface tension liquid-gas: 23.73 ± 0.28 mN/m
  mass density: 856.79 ± 0.18 kg/m3
[1]; 308.15 K, x1 = 0.0996
  surface tension liquid-gas: 26.61 ± 0.29 mN/m
  mass density: 848.66 ± 0.16 kg/m3
[1]; 308.15 K, x1 = 0.1998
  surface tension liquid-gas: 26.16 ± 0.29 mN/m
  mass density: 849.05 ± 0.16 kg/m3
[1]; 308.15 K, x1 = 0.2997
  surface tension liquid-gas: 25.73 ± 0.29 mN/m
  mass density: 849.41 ± 0.16 kg/m3
[1]; 308.15 K, x1 = 0.4001
  surface tension liquid-gas: 25.3 ± 0.28 mN/m
  mass density: 849.76 ± 0.16 kg/m3
[1]; 308.15 K, x1 = 0.4995
  surface tension liquid-gas: 24.89 ± 0.28 mN/m
  mass density: 850.09 ± 0.16 kg/m3
[1]; 308.15 K, x1 = 0.6004
  surface tension liquid-gas: 24.51 ± 0.28 mN/m
  mass density: 850.4 ± 0.17 kg/m3
[1]; 308.15 K, x1 = 0.6993
  surface tension liquid-gas: 24.17 ± 0.28 mN/m
  mass density: 850.67 ± 0.17 kg/m3
[1]; 308.15 K, x1 = 0.7993
  surface tension liquid-gas: 23.84 ± 0.27 mN/m
  mass density: 850.93 ± 0.17 kg/m3
[1]; 308.15 K, x1 = 0.8998
  surface tension liquid-gas: 23.5 ± 0.27 mN/m
  mass density: 851.14 ± 0.17 kg/m3
[1]; 308.15 K, x1 = 1
  surface tension liquid-gas: 23.16 ± 0.27 mN/m
  mass density: 851.24 ± 0.18 kg/m3

## COCCOC [1,2-dimethoxyethane]
[2]; 298.15 K
  surface tension liquid-gas: 24.27 ± 0.28 mN/m
[2]; 298.15 K, 101.33 kPa
  mass density: 861.36 ± 0.18 kg/m3
[2]; 303.15 K
  surface tension liquid-gas: 23.73 ± 0.28 mN/m
[2]; 303.15 K, 101 kPa
  mass density: 856.8 ± 0.18 kg/m3
[2]; 303.15 K, 101.33 kPa
  mass density: 856.79 ± 0.18 kg/m3
[2]; 308.15 K
  surface tension liquid-gas: 23.16 ± 0.27 mN/m
[2]; 308.15 K, 101.33 kPa
  mass density: 851.24 ± 0.18 kg/m3
